According to patent US20090221488A1, “Certain Compositions and Methods of Treatment” (priority 2005, published 2009):
Like-named read-outs stand apart in the source and are kept apart here.

What was measured:
[1] = system: murine P388 lymphocytic leukaemia; test: P388 lymphocytic leukaemia model, dosing schedule study; type: in vivo
Description: More frequent administration of the compound was poorly tolerated and dictated a lower total dose. […] At doses equivalent to either ¼ or ½ the MTD, % ILS and NCK were reduced.

[2] = system: Colo205 colon carcinoma xenograft; test: Colo205 xenograft tumor model; type: in vivo, nude mice
[3] = system: MV 522 human lung carcinoma xenograft; test: MV 522 xenograft tumor model; type: in vivo, nude mice; conditions: i.p. q4d×3, up to the MTD
[4] = Preclinical toxicology in dogs, 1-hr IV infusion; type: in vivo, dog
Experimental: Doses up to 40 mg/m^2 were tested in a single dose-range finding study and doses of 5, 10 and 20 mg/m^2 were tested in a 3-week (once weekly) toxicology study. Drug-related findings occurred at all dose levels, but severity and incidence were generally dose-proportional. […] In dogs given ≧10 mg/m^2, clinical observations of gastrointestinal (GI) disturbances included vomiting/retching, fecal abnormalities, hypoactivity, anorexia and body weight losses. […] Based on these findings, the highest non-severely toxic dose in the dog is 10 mg/m^2.

[5] = Preclinical toxicology in rats, 1, 6 and 24-hr IV infusion; type: in vivo, rat; conditions: for dose at which mortality occurred: 24-hr infusion
Description: Transient drug-related findings occurred at all doses, but severity and incidence were generally dose proportional and dependent on the duration of infusion. Most consistent findings included hematopoeitic toxicity (depletion in bone marrow and thymus and associated hematologic changes) and enteropathy (necrosis/regeneration of intestinal crypt epithelium and villus atrophy and body weight loss or decrease in body weight gain). Microscopic changes (necrosis, apoptosis and/or cellular degeneration) were also evident in liver, mammary glands, testes and epididymus, and at ≧36 mg/m^2, increased mitotic figures in many tissues. All drug-related toxicities completely reversed 2 weeks after dosing, with the exception of degenerative testicular changes at ≧18 mg/m^2. In the 1 to 6-hr infusion studies, there was no mortality, however based on the severity of hematopoietic and gastrointestinal toxicities, the MTD was 72 mg/m^2. When the infusion was increased to 24-hr, mortality occurred at 18 mg/m^2 after a single dose and at 12 mg/m^2 after repeated weekly dosing.

[6] = system: rat, dog, rabbit and human blood; test: In vitro hemolysis on mixing with blood
Description: Hemolysis was not observed in any of the in vivo studies, nor has it been observed in the ongoing Phase I trial.

In vitro Ames test = type: cell-based
Description: (§1) Positive findings are consistent with the expected pharmacology of Compound A.

mouse lymphoma = test: Mouse lymphoma mutagenicity assay; type: cell-based; conditions: in vitro mouse lymphoma mutagenicity assay
Description: as §1

[7] = In vivo rat micronucleus study; conditions: all doses tested (≧3 mg/m^2 administered daily×2)
Description: as §1

[8] = Dose-escalation Phase I study in patients with solid tumors; type: in vivo
Description: In this study, the ANC generally achieved a nadir at Day 7-8 and had completely recovered by Day 15.

Mouse KSP = Mouse KSP (Mus musculus, UniProt Q6P9P6); test: Kinesin affinity, mouse KSP; type: binding
Mouse KSP, sequence (Q6P9P6 whole entry): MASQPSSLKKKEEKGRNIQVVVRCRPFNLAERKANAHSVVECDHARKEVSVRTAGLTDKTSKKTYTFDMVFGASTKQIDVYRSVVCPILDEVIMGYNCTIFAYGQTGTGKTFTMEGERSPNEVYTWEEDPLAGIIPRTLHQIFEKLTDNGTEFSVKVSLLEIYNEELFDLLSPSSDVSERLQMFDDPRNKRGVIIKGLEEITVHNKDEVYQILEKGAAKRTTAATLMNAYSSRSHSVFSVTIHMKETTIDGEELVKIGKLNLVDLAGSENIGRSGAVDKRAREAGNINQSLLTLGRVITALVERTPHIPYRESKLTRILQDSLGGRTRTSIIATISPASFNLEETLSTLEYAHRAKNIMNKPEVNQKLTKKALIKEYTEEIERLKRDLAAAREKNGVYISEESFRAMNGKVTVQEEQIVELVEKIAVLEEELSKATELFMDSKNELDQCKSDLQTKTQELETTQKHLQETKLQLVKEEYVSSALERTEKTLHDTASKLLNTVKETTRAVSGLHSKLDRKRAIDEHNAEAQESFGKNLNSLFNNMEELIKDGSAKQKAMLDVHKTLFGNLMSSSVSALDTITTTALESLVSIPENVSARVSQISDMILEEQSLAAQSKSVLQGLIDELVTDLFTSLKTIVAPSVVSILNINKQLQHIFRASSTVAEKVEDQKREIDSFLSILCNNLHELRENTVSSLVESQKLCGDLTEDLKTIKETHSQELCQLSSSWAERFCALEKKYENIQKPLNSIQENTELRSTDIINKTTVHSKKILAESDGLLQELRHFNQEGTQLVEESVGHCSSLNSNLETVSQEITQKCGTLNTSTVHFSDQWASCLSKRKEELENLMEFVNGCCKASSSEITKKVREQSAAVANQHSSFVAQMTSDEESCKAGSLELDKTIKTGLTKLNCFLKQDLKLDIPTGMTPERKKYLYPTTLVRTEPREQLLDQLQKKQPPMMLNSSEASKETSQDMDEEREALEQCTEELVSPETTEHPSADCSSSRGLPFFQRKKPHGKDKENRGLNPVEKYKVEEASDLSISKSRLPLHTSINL

Other kinesins = test: Kinesin affinity, other kinesins; type: binding
HT29 = test: Cellular activity, HT29; type: cell-based
SKOV3 = test: Cellular activity, SKOV3; type: cell-based
Colo205 = test: Cellular activity, Colo205; type: cell-based
MV522 = test: Cellular activity, MV522; type: cell-based
MX1 = test: Cellular activity, MX1; type: cell-based
P388 (murine) = test: Cellular activity, P388; type: cell-based
[9] = system: broad spectrum of tumor cell lines; test: Cytotoxic activity in tumor cell lines; type: cell-based
HT29 tumor xenografts = test: HT29 tumor xenograft efficacy, Compound A and bortezomib alone and combined; type: in vivo, female athymic nu/nu mice; conditions: for TGD, second arm, single agents: 1.5 mg/kg bortezomib and 10 mg/kg Compound A as printed; for mean tumor growth delay (TGD): 1.5 mg/kg bortezomib, 10 mg/kg Compound A, q4d×3; for mean time to endpoint (TTE), tumor volume=1000 mm^3: single agents (at MTD for bortezomib and Compound A)
Experimental: (§2) Finally, tolerability and efficacy studies were conducted in which HT29 tumors maintained by serial passage were implanted subcutaneously in 9-10 weeks old female athymic no/nu mice (Harlan) Twenty-one (21) days post-implantation, when tumors reached 63-196 mm^3, mice were randomized into cohorts of […] with mean tumor volumes ˜100 mm^3. […] Drugs were delivered on the indicated schedules at 10 ml/kg by i.p. injection, except paclitaxel, which was administered by intravenous injection. Tumors were measured twice weekly and mice euthanized when tumor reached 1000 mm^3 or at day 59. Mice were weighed twice weekly. Acceptable toxicity was defined as body weight loss of <20% and ≦1 treatment-related death among ten treated animals. Toxicity exceeding these levels was considered above MTD.
(§3) Anti-tumor activity of sequenced (24 hour offset, q4d×3) and simultaneous administration was explored in HT29 tumor xenografts.
as §3

[10] = Tolerability (MTD) of Compound A and bortezomib in nude mice; type: in vivo
Experimental: as §2

[11] = system: HT 29 chemo-refractory colon carcinoma xenograft
[12] = system: MX-1 mammary carcinoma xenograft; conditions: i.p. q4d×3
[13] = molecular target: human P-glycoprotein (Pgp) (Homo sapiens, UniProt P08183); conditions: MDCKII-MDR1 cells
human P-glycoprotein (Pgp), sequence (P08183 whole entry): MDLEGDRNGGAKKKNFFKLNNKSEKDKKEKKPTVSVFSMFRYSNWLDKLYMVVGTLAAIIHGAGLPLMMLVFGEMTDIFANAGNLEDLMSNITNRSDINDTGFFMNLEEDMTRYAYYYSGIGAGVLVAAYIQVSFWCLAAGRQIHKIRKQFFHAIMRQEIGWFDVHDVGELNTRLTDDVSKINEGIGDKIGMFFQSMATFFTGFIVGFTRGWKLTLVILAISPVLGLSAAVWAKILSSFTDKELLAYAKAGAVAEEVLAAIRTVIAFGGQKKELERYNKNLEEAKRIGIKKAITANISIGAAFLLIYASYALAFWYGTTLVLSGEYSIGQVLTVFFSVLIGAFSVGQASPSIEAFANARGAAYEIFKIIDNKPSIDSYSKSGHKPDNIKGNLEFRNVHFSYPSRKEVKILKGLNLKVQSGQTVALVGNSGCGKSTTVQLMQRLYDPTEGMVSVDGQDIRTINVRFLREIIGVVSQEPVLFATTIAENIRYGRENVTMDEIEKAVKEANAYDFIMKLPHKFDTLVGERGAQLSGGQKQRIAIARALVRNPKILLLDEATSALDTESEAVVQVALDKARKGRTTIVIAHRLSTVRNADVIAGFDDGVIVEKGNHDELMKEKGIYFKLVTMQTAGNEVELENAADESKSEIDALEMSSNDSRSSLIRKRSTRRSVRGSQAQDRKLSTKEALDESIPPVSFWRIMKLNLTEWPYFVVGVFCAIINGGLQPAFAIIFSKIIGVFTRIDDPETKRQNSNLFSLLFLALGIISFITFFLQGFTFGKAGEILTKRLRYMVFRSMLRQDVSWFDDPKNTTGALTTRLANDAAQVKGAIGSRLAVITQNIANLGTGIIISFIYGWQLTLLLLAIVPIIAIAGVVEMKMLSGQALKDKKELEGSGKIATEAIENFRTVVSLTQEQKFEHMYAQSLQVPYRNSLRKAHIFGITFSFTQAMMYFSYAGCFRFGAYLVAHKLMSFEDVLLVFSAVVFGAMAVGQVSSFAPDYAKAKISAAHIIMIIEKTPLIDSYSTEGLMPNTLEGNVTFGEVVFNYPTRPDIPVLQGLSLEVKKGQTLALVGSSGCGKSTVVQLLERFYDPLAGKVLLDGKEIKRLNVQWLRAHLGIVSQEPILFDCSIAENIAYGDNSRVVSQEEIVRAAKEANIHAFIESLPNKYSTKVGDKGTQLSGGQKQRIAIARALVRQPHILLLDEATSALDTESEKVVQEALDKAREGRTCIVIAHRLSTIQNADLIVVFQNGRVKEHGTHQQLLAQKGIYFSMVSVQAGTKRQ

[14] = system: MCF-7 human tumor xenograft
[15] = system: SK-MES human tumor xenograft
[16] = system: H69 human tumor xenograft
[17] = system: OVCAR-3 human tumor xenograft
[18] = system: MDA-MB-231 human tumor xenograft
[19] = system: A2780 human tumor xenograft
[20] = molecular target: P-glycoprotein (Pgp, MDR1) (Homo sapiens, UniProt P08183); test: in vitro
P-glycoprotein (Pgp, MDR1), sequence (P08183 whole entry): as above

[21] = i.p., q4d×3 schedule, at the MTD
[22] = rat, 1 to 6-hr infusion studies
[23] = Q21 days, patients with solid tumors

With `Cc1ccc(C(=O)N(CCCN)[C@@H](c2oc3cc(Cl)ccc3c(=O)c2Cc2ccccc2)C(C)C)cc1` [Compound A, N-(3-Aminopropyl)-N—[(R)-1-3-benzyl-7-chloro-4-oxo-4H-chromen-2-yl-2-methyl-propyl]-4-methyl-benzamide] the “% ILS and NCK” value ([1]; doses equivalent to ¼ or ½ the MTD) was “reduced”, the “mean (±SEM) % increase in lifespan (ILS)” value [1, 21] was 156±10% and the “net cell kill (NCK)” value [1, 21] was 2.9±0.5 logs. The “single agent activity against advanced xenograft” value (shortened to “single agent activity”) ([2]; Colo205) was “complete regressions”, the tumor regression ([2]; i.p. q4d×3, at the MTD) was “complete tumor regressions” and the tumor regression ([2]; i.p. q4d×3, doses as low as 25% of the MTD, majority of animals) was “Partial tumor regressions”. The tumor response [3] was “refractory”, the “animals euthanized in moribund condition” value ([4]; Day 4 after a single 1-hr IV infusion of 20 mg/m^2) was “One of 10 dogs” and the “dose with clinical observations of gastrointestinal (GI) disturbances” value ([4]; dog, 1-hr IV infusion) was at least 10 mg/m^2. The “highest non-severely toxic dose” value ([4]; dog, 1-hr IV infusion, once weekly for 3 weeks) was 10 mg/m^2, the “dose with testicular germinal epithelial abnormalities” value ([4]; male dogs) was 20 mg/m^2 and the “dose with degenerative testicular changes not reversed 2 weeks after dosing” value ([5]; rat IV infusion) was at least 18 mg/m^2. The “dose with increased mitotic figures in many tissues” value ([5]; rat IV infusion) was at least 36 mg/m^2, the MTD [5, 22] was 72 mg/m^2 and the mortality [5, 22] was “no mortality”. For the same compound, the “dose at which mortality occurred” value ([5]; rat, after a single dose) was 18 mg/m^2, the “dose at which mortality occurred” value ([5]; rat, after repeated weekly dosing) was 12 mg/m^2 and the hemolysis ([6]; at 0.3 mg/mL) was “no hemolysis was observed”. The hemolytic concentration ([6]; mixed with rat, dog, rabbit and human blood) was at least 0.6 mg/mL, the genotoxic activity (In vitro Ames test) was “did not show evidence of genotoxic activity” and the genotoxic activity (mouse lymphoma) was “did not show evidence of genotoxic activity”. For the same compound, the micronucleus result [7] was “positive results as an aneugen”, the “patients with dose-limiting toxicity (Grade 3 hypophosphatemia, not thought to be drug-related)” value ([8]; 4 mg/m^2) was 1 of the first 6 patients and the “day of ANC nadir” value ([8]; Phase I, Q21 days) was 7 to 8 days. The “day of ANC recovery” value ([8]; Phase I, Q21 days) was at most 15 days, the “neurotoxicity, mucositis, thrombocytopenia, alopecia, and nausea vomiting requiring pre-medication” value ([8]; Phase I, one hour infusion every 21 days) was “have not been observed” and the “most commonly occurring dose-limiting toxicity” value [8, 23] was “Prolonged (≧5 days), reversible neutropenia”. The “presumptive maximum tolerated dose (MTD)” value [8, 23] was 4 mg/m^2, the “dose eliciting Grade 4 neutropenia lasting ≧5 days” value ([8]; single one hour infusion every 21 days) was at least 5 mg/m^2 and the Ki (Mouse KSP) was 0.12 nM. It also gave a Ki (Other kinesins) of over 70000 nM, an IC50 (HT29) of 1.9 nM and an IC50 (SKOV3) of 0.2 nM. The IC50 (Colo205) was 0.07 nM, the IC50 (MV522) was 1.7 nM and the IC50 (MX1) was 0.06 nM. The IC50 (P388 (murine)) was 14.4 nM, the cytotoxic activity [9] was “less than 2 nM” and the “TGD, second arm, single agents” value (HT29 tumor xenografts) was 12 days. The “mean tumor growth delay (TGD)” value (HT29 tumor xenografts) was 24 days, the “mean time to endpoint (TTE), tumor volume=1000 mm^3” value (“mean time to endpoint (TTE)” for short) (HT29 tumor xenografts) was “did not differ significantly from untreated control animals” and the “single agent MTD (q4d×3)” value ([10]; i.p.) was “about 10 mg/kg”. The “single agent activity” value ([11]; HT-29) was “tumor growth delay”, the “tumor growth delay (T-C1000)” value ([11]; i.p. q4d×3, time differential to tumor volume 1000 mm^3) was 25 days and the tumor regressions [12] was “did not induce any tumor regressions”. For the same compound, the “tumor growth delay (T-C1000)” value ([12]; time differential to tumor volume 1000 mm^3) was 10 days, the Pgp substrate [13] was “is a Pgp substrate” and the “average P7.4” value [13] was 2.5 ×10⁻⁶ cm/s. The passive membrane permeability [13] was under 5 ×10⁻⁶ cm/s, the “single agent activity” value [14] was “complete and partial regressions” and the “single agent activity” value [15] was “complete and partial regressions”. The “single agent activity” value [16] was “complete and partial regressions”, the “single agent activity” value [17] was “complete and partial regressions” and the “single agent activity” value [18] was “tumor growth delay”. For the same compound, the “single agent activity” value [19] was “tumor growth delay”.

In the case of `COc1cc2c(cc1OC)CN(CCc1ccc(NC(=O)c3cccc4c(=O)c5cccc(OC)c5[nH]c34)cc1)CC2` [GF120918A], the activity at 2 μM [20] is reported as about 30%.

With `CC(C)C[C@H](NC(=O)[C@H](Cc1ccccc1)NC(=O)c1cnccn1)B(O)O` [bortezomib] the “TGD, second arm, single agents” value (HT29 tumor xenografts) was 9 days, the “mean tumor growth delay (TGD)” value (HT29 tumor xenografts) was 9 days and the “mean time to endpoint (TTE)” value (HT29 tumor xenografts) was “did not differ significantly from untreated control animals”. The MTD ([10]; female, athymic nu/nu (nude), mouse, in vivo, ip, read-out: single agent MTD (q4d×3)) was about 1.5 mg/kg.

Work on `Cc1ccc(C(=O)N(CCCN)[C@@H](c2nc3cc(Cl)ccc3c(=O)n2Cc2ccccc2)C(C)C)cc1` [ispinesib, reference compound] yielded a Ki (Mouse KSP) of 0.76 nM, a Ki (Other kinesins) of over 70000 nM and an IC50 (HT29; Homo sapiens, HT-29) of 1.2 nM. It also gave an IC50 (SKOV3; Homo sapiens, SK-OV-3) of 1 nM, an IC50 (Colo205; Homo sapiens, COLO 205) of 0.18 nM and an IC50 (MV522; MV522) of 9.7 nM. For the same compound, the IC50 (MX1; Homo sapiens, MX1) was 2.8 nM and the IC50 (P388 (murine); Mus musculus, P388) was 19.7 nM.

For `CC(=O)O[C@H]1C(=O)[C@@]2(C)[C@H]([C@H](OC(=O)c3ccccc3)[C@]3(O)C[C@H](OC(=O)[C@H](O)[C@@H](NC(=O)c4ccccc4)c4ccccc4)C(C)=C1C3(C)C)[C@]1(OC(C)=O)CO[C@@H]1C[C@@H]2O` [paclitaxel], the “mean time to endpoint (TTE)” value (HT29 tumor xenografts) was 59 days.
